{"source": "patent US20240376151A1", "about": "“STAPLED PEPTIDES AND METHODS THEREOF” (FOG PHARMACEUTICALS, INC., priority 2022, published 2024)", "key": {"β-catenin:MDM4 complex": {"molecular_target": "T1, β-catenin:MDM4 complex (Homo sapiens, UniProt O15151+P35222, C17S)", "T1 construct": "6×His-yBBr-TEV (N); 6×His-yBBr-3C (N, cleaved yes); made in house; host or cells: E. coli BL21 (DE3) pLysS (beta-catenin); E. coli BL21 (DE3) (MDM4)", "T1 sequence (P35222 134-665)": "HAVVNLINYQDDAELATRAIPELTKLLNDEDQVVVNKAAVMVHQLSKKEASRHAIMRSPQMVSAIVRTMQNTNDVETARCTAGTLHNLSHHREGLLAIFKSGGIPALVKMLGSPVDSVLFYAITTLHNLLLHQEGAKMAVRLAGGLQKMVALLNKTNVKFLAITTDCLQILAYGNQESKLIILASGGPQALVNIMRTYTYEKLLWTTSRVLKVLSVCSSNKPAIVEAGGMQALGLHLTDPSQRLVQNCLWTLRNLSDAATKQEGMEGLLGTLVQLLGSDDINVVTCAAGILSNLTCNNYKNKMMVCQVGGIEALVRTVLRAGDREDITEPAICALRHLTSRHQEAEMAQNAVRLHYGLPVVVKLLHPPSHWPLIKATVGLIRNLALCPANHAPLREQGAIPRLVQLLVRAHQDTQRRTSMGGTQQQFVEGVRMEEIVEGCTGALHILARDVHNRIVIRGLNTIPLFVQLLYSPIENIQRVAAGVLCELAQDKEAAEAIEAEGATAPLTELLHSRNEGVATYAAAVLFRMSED", "T1 sequence (O15151 14-111 C17S)": "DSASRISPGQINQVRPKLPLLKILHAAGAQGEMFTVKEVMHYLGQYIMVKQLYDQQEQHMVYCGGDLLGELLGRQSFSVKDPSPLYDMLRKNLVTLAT", "assay": "FP analysis of the β-catenin:MDM4 complex", "type": "biochemical", "settings": "direct FP assay"}, "PD-L1": {"molecular_target": "PD-L1 (Homo sapiens, UniProt Q9NZQ7)", "sequence (Q9NZQ7 18-239)": "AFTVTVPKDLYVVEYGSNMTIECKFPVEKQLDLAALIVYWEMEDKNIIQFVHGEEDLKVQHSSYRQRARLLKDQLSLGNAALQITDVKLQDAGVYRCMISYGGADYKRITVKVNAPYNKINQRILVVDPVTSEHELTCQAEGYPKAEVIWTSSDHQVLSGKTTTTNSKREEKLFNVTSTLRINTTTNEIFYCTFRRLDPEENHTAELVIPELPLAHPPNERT"}, "beta-catenin": {"molecular_target": "T2, beta-catenin (Homo sapiens, UniProt P35222)", "T2 construct": "10 nM full-length β-catenin (Uniprot ID P35222); 6×His-thrombin-T7-TEV (N); made in house; host or cells: E. coli BL21 (DE3) pLysS", "T2 sequence (P35222 2-781 limits assumed)": "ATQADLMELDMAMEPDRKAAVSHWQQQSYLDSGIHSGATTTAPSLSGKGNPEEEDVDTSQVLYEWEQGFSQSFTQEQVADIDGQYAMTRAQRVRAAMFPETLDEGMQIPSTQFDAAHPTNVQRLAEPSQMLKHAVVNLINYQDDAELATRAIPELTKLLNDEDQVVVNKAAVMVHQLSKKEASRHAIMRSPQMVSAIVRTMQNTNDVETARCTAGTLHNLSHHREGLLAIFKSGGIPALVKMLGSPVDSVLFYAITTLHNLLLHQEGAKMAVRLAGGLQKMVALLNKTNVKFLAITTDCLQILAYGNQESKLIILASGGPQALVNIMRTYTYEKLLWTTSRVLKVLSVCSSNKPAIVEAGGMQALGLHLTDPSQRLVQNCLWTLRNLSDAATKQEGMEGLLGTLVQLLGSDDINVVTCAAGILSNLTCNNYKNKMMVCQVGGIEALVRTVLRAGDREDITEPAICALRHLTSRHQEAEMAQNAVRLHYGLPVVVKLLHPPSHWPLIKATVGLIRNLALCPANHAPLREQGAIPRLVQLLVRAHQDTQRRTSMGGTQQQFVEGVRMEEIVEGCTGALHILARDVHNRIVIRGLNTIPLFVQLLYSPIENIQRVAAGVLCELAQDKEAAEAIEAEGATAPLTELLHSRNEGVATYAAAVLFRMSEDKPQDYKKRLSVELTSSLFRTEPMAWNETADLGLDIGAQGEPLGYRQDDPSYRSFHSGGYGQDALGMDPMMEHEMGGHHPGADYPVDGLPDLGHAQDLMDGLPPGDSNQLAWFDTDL", "assay": "KD (μM, SPR)"}, "Expi293 cells [1]": {"system": "Expi293 cells", "assay": "Measurement of the Cell Association of Helicons (mass spectrometry quantification in cells after treatment and wash)", "type": "cell-based", "settings": "percentage of Helicons in cells after treatment and wash, 22 hours, n = 2, mean ± SD", "experimental": "All samples were analyzed using mass spectrometry."}, "Expi293 cells [2]": {"system": "Expi293 cells", "assay": "CellTiter-Glo cell health (ATP levels) during cell association assay", "type": "cell-based", "settings": "reflective of cell health, luminescence Tfinal (22 hours) / Tinitial"}}, "note": "Read-outs that look alike come from different tables or passages of the source. Numbered stars: 1 amine (or outer) side, 2 acyl side, 3 side chain; on linkers, the order of the positions; unused ones are H or OH. Bridge positions count the residues as written; N and C are the ends. Peptide text beside a SMILES is read from it. Phenylene(1,4-NHCOCH2)2 = O=C(C[*:1])Nc1ccc(NC(=O)C[*:2])cc1"}
{"molecule": "CC[C@H](C)[C@H](NC(=O)[C@H](C)NC(=O)[C@H](CCC(N)=O)NC(C)=O)C(=O)N[C@H]1CSCC(=O)Nc2ccc(cc2)NC(=O)CSC[C@@H](C(=O)N[C@@H](CC(C)C)C(=O)N[C@@H](C)C(=O)N[C@@H](CC(=O)O)C(=O)N[C@@H](CC(=O)O)C(=O)N[C@@H](Cc2c[nH]c3ccccc23)C(=O)N[C@H](C(N)=O)[C@@H](C)O)NC(=O)[C@H](CCSC)NC(=O)[C@H](Cc2c[nH]c3ccccc23)NC(=O)[C@H](C)NC(=O)[C@H](C)NC(=O)[C@H](CCC(N)=O)NC(=O)[C@H](Cc2ccccc2)NC1=O", "note": "[Helicon H331]", "values": [{"measurement": "promotion of interaction between MDM4 and β-catenin", "setting": "β-catenin:MDM4 complex", "result": "not between MDM4 and β-catenin"}]}
{"molecule": "DPAAADCQWAAFLCRVY", "values": [{"measurement": "phage screen counts, Target Concentration 10", "setting": "PD-L1; PD-L1, target concentration 10", "result": 0}, {"measurement": "phage screen counts, Target Concentration 30", "setting": "PD-L1; PD-L1, target concentration 30", "result": 0}, {"measurement": "phage screen counts, Target Concentration 100", "setting": "PD-L1; PD-L1, target concentration 100", "result": 12}, {"measurement": "phage screen counts, Target Concentration 300", "setting": "PD-L1; PD-L1, target concentration 300", "result": 47}, {"measurement": "phage screen counts, Target Concentration 1000", "setting": "PD-L1; PD-L1, target concentration 1000, first column", "result": 60}, {"measurement": "phage screen counts, Target Concentration 1000", "setting": "PD-L1; PD-L1, target concentration 1000, second column", "result": 62}]}
{"molecule": "CC(=O)N[C@@H](CC(=O)O)C(=O)N1CCC[C@H]1C(=O)N[C@@H](C)C(=O)N[C@H](C(=O)N[C@@H](C)C(=O)N[C@@H](CCCNC(=N)N)C(=O)N[C@H]1CSCC(=O)Nc2ccc(cc2)NC(=O)CSC[C@@H](C(=O)N[C@@H](CCC(=O)O)C(=O)N[C@@H](CC(C)C)C(=O)N[C@H](C(N)=O)C(C)C)NC(=O)[C@H](Cc2c[nH]cn2)NC(=O)[C@H](CC(C)C)NC(=O)[C@H](C)NC(=O)[C@H](C)NC(=O)[C@H](Cc2c[nH]c3ccccc23)NC(=O)[C@H](CCC(=O)O)NC1=O)[C@@H](C)O", "note": "[FP49251] (Ac-DPATARCEWAALHCELV-NH2; linker 7-14 via Phenylene(1,4-NHCOCH2)2)", "values": [{"measurement": "Kd", "setting": "beta-catenin", "result": "0.4 ± 0.05", "unit": "µM"}]}
{"molecule": "CC(=O)N[C@@H](CC(=O)O)C(=O)N1CCC[C@H]1C(=O)N[C@@H](C)C(=O)N[C@@H](C)C(=O)N[C@@H](Cc1c[nH]cn1)C(=O)N[C@@H](CCCNC(=N)N)C(=O)N[C@H]1CSCC(=O)Nc2ccc(cc2)NC(=O)CSC[C@@H](C(=O)N[C@@H](CCC(=O)O)C(=O)N[C@@H](CC(C)C)C(=O)N[C@H](C(N)=O)C(C)C)NC(=O)[C@H](Cc2c[nH]cn2)NC(=O)[C@H](CC(C)C)NC(=O)[C@H](C)NC(=O)[C@H](C)NC(=O)[C@H](Cc2c[nH]c3ccccc23)NC(=O)[C@H](CCC(=O)O)NC1=O", "note": "[FP49250] (Ac-DPAAHRCEWAALHCELV-NH2; linker 7-14 via Phenylene(1,4-NHCOCH2)2)", "values": [{"measurement": "Kd", "setting": "beta-catenin", "result": "1.4 ± 0.55", "unit": "µM"}]}
{"molecule": "CC[C@H](C)[C@H](NC(=O)[C@H](Cc1ccc(O)cc1)NC(=O)[C@H](CCC(N)=O)NC(=O)[C@]1(C)CCCC=CCCCCCC[C@@](C)(NC(=O)[C@H](Cc2c[nH]cn2)NC(=O)[C@@H](NC(=O)[C@@H](NC(C)=O)[C@@H](C)CC)[C@@H](C)CC)C(=O)N[C@@H](Cc2ccc(O)cc2)C(=O)N[C@@H](CCC(=O)O)C(=O)N[C@@H](C)C(=O)N[C@@H](C)C(=O)N[C@@H](Cc2ccccc2)C(=O)N[C@@H](Cc2ccccc2)C(=O)N1)C(N)=O", "note": "(single isomer, unassigned) [FP08012, Ac-Ile-Ile-His-R8-Tyr-Glu-Ala-Ala-Phe-Phe-S5-Gln-Tyr-Ile-NH2]", "values": [{"measurement": "Helicon in cells ± SD (%)", "setting": "Expi293 cells [1]", "result": "5.4 ± 0.9", "unit": "%"}, {"measurement": "CellTiter-Glo fold change ± SD", "setting": "Expi293 cells [2]", "result": "1.1 ± 0.04"}]}
{"molecule": "CC(=O)N[C@@H](CC(=O)O)C(=O)N1CCC[C@H]1C(=O)N[C@@H](C)C(=O)N[C@H](C(=O)N[C@@H](Cc1c[nH]cn1)C(=O)N[C@@H](C)C(=O)N[C@H]1CSCC(=O)Nc2ccc(cc2)NC(=O)CSC[C@@H](C(=O)N[C@@H](CCC(=O)O)C(=O)N[C@@H](CC(C)C)C(=O)N[C@H](C(N)=O)C(C)C)NC(=O)[C@H](Cc2c[nH]cn2)NC(=O)[C@H](CC(C)C)NC(=O)[C@H](C)NC(=O)[C@H](C)NC(=O)[C@H](Cc2c[nH]c3ccccc23)NC(=O)[C@H](CCC(=O)O)NC1=O)[C@@H](C)O", "note": "[FP49252] (Ac-DPATHACEWAALHCELV-NH2; linker 7-14 via Phenylene(1,4-NHCOCH2)2)", "values": [{"measurement": "Kd", "setting": "beta-catenin", "result": "0.3 ± 0.1", "unit": "µM"}]}
{"molecule": "Ac-[5FAM]-Lys-Gln-Ser-Gln-Gln-Thr-Phe-R8-Asn-Leu-Trp-Arg-Leu-Leu-S5-Gln-Asn-NH2 (KQSQQTFXNLWRLLXQN; Ac, 5FAM, R8-S5 staple, C-terminal amide; SITE 1 Acetylated 5-Carboxyfluorescein modified residue; SITE 8 (R)-2-amino-2-methyldec-9-enoic acid, useful for stapling/stapled with another amino acid residue comprising an olefin group to form a staple through the olefin group; SITE 15 (S)-2-amino-2-methylhept-6-enoic acid, useful for stapling/stapled with another amino acid residue comprising an olefin group to form a staple through the olefi) [FP47839, reference compound]", "values": [{"measurement": "Helicon in cells ± SD (%)", "setting": "Expi293 cells [1]", "result": "2.1 ± 0.1", "unit": "%"}, {"measurement": "CellTiter-Glo fold change ± SD", "setting": "Expi293 cells [2]", "result": "1.3 ± 0.01"}]}
{"molecule": "CC(=O)N[C@@H](CC(C)C)C(=O)N[C@H](C(=O)N[C@@H](Cc1ccccc1)C(=O)N[C@]1(C)CCCCCCC=CCCC[C@@](C)(C(=O)N[C@@H](CO)C(=O)N[C@@H](C)C(=O)N[C@@H](C)C(N)=O)NC(=O)[C@H](CC2CCC2)NC(=O)[C@H](CCC(N)=O)NC(=O)[C@H](C)NC(=O)[C@H](Cc2c[nH]c3ccccc23)NC(=O)[C@H](Cc2ccc(O)cc2)NC(=O)[C@H](CCC(=O)O)NC1=O)[C@@H](C)O", "note": "[FP01413, Ac-Leu-Thr-Phe-R8-Glu-Tyr-Trp-Ala-Gln-Cba-S5-Ser-Ala-Ala-NH2, reference compound]", "values": [{"measurement": "Helicon in cells ± SD (%)", "setting": "Expi293 cells [1]", "result": "3.7 ± 0.4", "unit": "%"}, {"measurement": "CellTiter-Glo fold change ± SD", "setting": "Expi293 cells [2]", "result": "1.2 ± 0.07"}]}
{"molecule": "CC[C@H](C)[C@H](NC(=O)[C@H](Cc1ccccc1)NC(=O)[C@H](Cc1ccc(O)cc1)NC(=O)[C@H](CC(C)C)NC(=O)[C@@H]1CSCC(=O)Nc2ccc(cc2)NC(=O)CSC[C@H](NC(=O)[C@H](CC(=O)O)NC(=O)[C@H](CCCNC(=N)N)NC(=O)[C@H](C)NC(=O)[C@H](CC(N)=O)NC(=O)[C@H](CCC(=O)O)NC(=O)[C@H](CO)NC(=O)[C@@H]2CCCN2C(C)=O)C(=O)N[C@@H](Cc2ccccc2)C(=O)N[C@@H](Cc2c[nH]c3ccccc23)C(=O)N[C@@H](C)C(=O)N[C@@H](C)C(=O)N[C@@H](Cc2c[nH]c3ccccc23)C(=O)N[C@@H](CC(=O)O)C(=O)N1)C(=O)N[C@@H](Cc1ccc(O)cc1)C(=O)N[C@@H](CCC(N)=O)C(N)=O", "note": "[Helicon H333]", "values": [{"measurement": "promotion of interaction between MDM4 and β-catenin", "setting": "β-catenin:MDM4 complex", "result": "not between MDM4 and β-catenin"}]}
{"molecule": "CCCC[C@H](NC(=O)[C@@H](NC(C)=O)C(C)C)C(=O)N[C@@H](CCC(=O)O)C(=O)N[C@]1(C)CCCCCCC=CCCC[C@@](C)(C(=O)N[C@@H](Cc2c[nH]cn2)C(=O)N[C@@H](Cc2ccc(O)cc2)C(=O)N[C@H](C(N)=O)C(C)C)NC(=O)[C@H]([C@@H](C)CC)NC(=O)[C@H](Cc2ccccc2)NC(=O)[C@H](C)NC(=O)[C@H](C)NC(=O)[C@H](CCC(N)=O)NC(=O)[C@H](Cc2ccc(O)cc2)NC1=O", "note": "(single isomer, unassigned) [FP07867, Ac-Val-nLeu-Glu-R8-Tyr-Gln-Ala-Ala-Phe-Ile-S5-His-Tyr-Val-NH2]", "values": [{"measurement": "Helicon in cells ± SD (%)", "setting": "Expi293 cells [1]", "result": "8.6 ± 0.4", "unit": "%"}, {"measurement": "CellTiter-Glo fold change ± SD", "setting": "Expi293 cells [2]", "result": "1.2 ± 0.03"}]}
{"molecule": "CCCC[C@H](NC(=O)[C@@H](NC(C)=O)C(C)C)C(=O)N[C@@H](CCC(=O)O)C(=O)N[C@]1(C)CCCCCCC=CCCC[C@@](C)(C(=O)N[C@@H](Cc2c[nH]cn2)C(=O)N[C@@H](Cc2ccc(O)cc2)C(=O)N[C@H](C(N)=O)C(C)C)NC(=O)[C@H]([C@@H](C)CC)NC(=O)[C@H](Cc2ccccc2)NC(=O)[C@H](C)NC(=O)[C@H](C)NC(=O)[C@H](CCC(=O)O)NC(=O)[C@H](Cc2ccc(O)cc2)NC1=O", "note": "(single isomer, unassigned) [FP07855, Ac-Val-nLeu-Glu-R8-Tyr-Glu-Ala-Ala-Phe-Ile-S5-His-Tyr-Val-NH2]", "values": [{"measurement": "Helicon in cells ± SD (%)", "setting": "Expi293 cells [1]", "result": "16.4 ± 0.6", "unit": "%"}, {"measurement": "CellTiter-Glo fold change ± SD", "setting": "Expi293 cells [2]", "result": "1.2 ± 0.10"}]}
